This is an account of results in US20220142967A1, “Methods and Compositions for the Treatment of Multiple Sclerosis” (SYMBIONYX PHARMACEUTICALS INC, priority 2018, published 2022).

Where a name gives a salt, the structure may show the parent alone.

Holding throughout (assay type): cell-based
For assay [1], the system named is cytokine-treated neonatal human epidermal keratinocytes (HEK). Description: qPCR of pro-inflammatory and antioxidant genes in cytokine-treated keratinocytes. The conditions noted are these: 4 μg/ml, 24 h, IL-17A/IL-22/TNFα treated HEK. As to the method:
A separate assay study was conducted on cytokine-treated neonatal human epidermal keratinocytes (HEK) looking at the expression impact of IDMF and dimethyfumarate (DMF) on key pro-inflammatory and antioxidant genes. In preparation for the assay, HEK (p2; Cell Applications, San Diego) were cultured at optimal conditions [keratinocyte growth medium supplemented with KGM-Gold Bullet kit (Lonza, Switzerland)] to form a segmented monolayer. A cytokine mix of IL-17A/IL-22/TNFα (100 ng/ml; 100 ng/ml; 10 ng/ml; Antigenix, Huntington Station, N.Y.) was added and the cell cultures incubated for 24 h. […] Thereafter, each test material was added to the cultures at 4 μg/ml (final concentration) in triplicate and the cultures incubated for a further 24 hours.
After the 24-hour incubation with the test materials, the cells were observed through a Nikon Eclipse TS100 inverted microscope. No gross morphological changes were recorded. RNA was then extracted and purified with NucleoSpin RNA II kit from Machery-Nagel, Bethlehem, Pa., using QiaCube robotic station (Qiagen, Valencia, Calif.). Purified total RNA was assessed at 260 nm and 280 nm with NanoDrop Lite (Thermo Fisher Scientific, Waltham, Mass.), pure samples with A260A/280 and A260/A230 ratios of >1.7 were standardized and the expression of the genes of interest (Table 3) was measured by real-time quantitative PCR with BioRad iCycler iQ Detection System using custom-made PCR arrays (Qiagen, Valencia, Calif.; part #24caph12190), 5×All-In-One 1st Strand cDNA Synthesis Mix (Bioland Scientific, Paramount, Calif.) and 2×qPCR Master Mix (Bioland). Efficiency ΔΔCt method was used for quantification of results, after the normalization of gene expression to GAPDH/PPIA housekeeping gene. Genes were considered differentially expressed if the level of expression was reasonably high (less than 30 cycles to detect) and the modulation was >1.7. […] Even assuming IDMF fully metabolizes to MMF, there is still considerably more MMF from DMF as opposed to the same amount, based on weight, of IDMF.

The test system of assay [2] is human fetal astrocytes. Put plainly: A1 v A2 marker activation, RNA-seq of H2O2-stimulated astrocytes. The following applies: 2.5 μM, 24 hrs, H2O2 (50 μM) stimulated. The method, then:
The treated cells were stimulated with H2O2 (50 μM) for 20 min and the RNA extracted 1 day later and sequenced using the Illumina HiSeq 2000 with an average of 39.3 million reads per sample. Reads were mapped to the GHch38/hg38 genome. 13,968 protein-coding genes had detectable expression on average among the 6 samples. Differentially expressed genes (DEGs) were identified using negative binomial models with FDR threshold of <0.10 and fold change (FC) criteria (FC>1.30 or FC<0.77). Gene set enrichment testing was performed using public database annotations. Motif enrichment with respect to DEG up-stream regions was characterized using semiparametric generalized additive logistics models. The overlap between the identified DEGs and MS-associated genes, i.e., genes from MS patients and genes linked to inflammatory (A1) and ischemic (A2) astrogliosis.

For assay [3], the system named is human fetal astrocytes derived from cerebral cortex. Description: Transcriptome analysis of astrocyte cultures treated with MMF, DRF, IDMF. The conditions noted are these: 2.5 μM, 24 hours. The method, then:
Experiments were performed using human fetal astrocytes derived from cerebral cortex (cat. no. 882A-05f; Cell Applications, Sant Diego, Calif.). Cells were grown to subconfluence in human astrocyte growth medium (cat. no. 820-500, Cell Applications). […] Test materials were added to subconfluent cultures at a concentration of 2.5 μM and cells were incubated for 24 hours.
RNA was extracted following the incubation period using the RNAeasy Mini Plus kit (Qiagen, Hilden, Germany) and robotic Qiacube Connect station (Qiagen). Samples were shipped on dry ice to the Thermo Fisher Microarray Research Services Laboratory (Santa Clara, Calif.) for transcriptome analysis. RNA quality analysis was performed upon sample receipt using the NanoDrop Lite (Thermo Fisher Scientific, Waltham, Mass.). All samples had 260/280 nm absorbance ratios higher than 1.90, consistent with high-purity RNA.
In follow-up to the study of Example, 1 above, genes associated with multiple sclerosis were identified based upon seven established database sources: (1) the NHGRI-EBI genome-wide association (GWA) study catalogue, (2) the Disease Ontology (DO) database, (3) the DisGeNET (curated) database, (4) the DisGeNET (BeFree), (5) MalaCards, (6) the Medical Subject Heading (MESH) database and the KEGG Database. The impact on gene expression of IDMF, MMF and DRF on the key overlapping MS-associated genes was assessed.
The specific data for four of the key NFR2 target genes associated with antioxidant and anti-inflammatory effects is presented in FIGS. 7(A) thru 7(D).
Both TNFAIP3 and NFKBIA encode inhibitory proteins that suppress the NF-KB pathway. Specifically, TNFAIP3 encodes a deubiquitinating enzyme previously linked to MS by genetic association studies: a TNFAIP3 protein abundance is increased in white matter and cortical lesion astrocytes from MS patient brains. Similarly, NFKBIA (IκBα) encodes an NF-KB inhibitor for which promoter polymorphisms have been associated with MS and abundance of this protein is prominent in macrophage nuclei of MS plaques undergoing active demyelination. ICAM1 encodes an endothelial adhesion molecule that promotes leucocyte extravasation and is associated with the initiation and progression of inflammation as well as the targeting of inflammation in the central nervous system (CNS). FIGS. 9(A), 9(B) and 9(C) show the specific data for these three genes.
Genetic variants of IFR has been associated with MS and some MS treatments such as glatiramer acetate block cytokine-stimulated IRF1 up-regulation. An assessment was undertaken to assess the relative impact of fumarate esters, namely MMF, DRF and IDMF on IFR motif enrichment.

As to `COC(=O)/C=C/C(=O)O[C@H]1CO[C@H]2[C@@H]1OC[C@H]2OC(=O)/C=C/C(=O)OC` [IDMF, isosorbide di-(methyl fumarate)], in assay [1], the CXCL3 fold change was −1.1 fold, the IL8 fold change amounted to 1.4 fold, the NFE2L2 fold change is listed as 2.6 fold and the PTGS2 fold change is recorded as 1.2 fold. For the same compound, in assay [2], the ICAM1 expression result is listed as “downregulate”, the “expression of genes linked to A2-polarization” value is reported as “tended to increase the expression” and the “expression of genes linked to pan-reactive gliosis” value is “decreasing”. In assay [3], the IRF1 expression result is recorded as “marked downregulation”; the “effect on NRF2 target genes compared with MMF and DRF” value is given as “much more pronounced effect”; the “effect on TNFAIP3, NFKBIA and ICAM1 expression” value is given as “marked downregulation”; the “expression of heme oxygenase-1 (HMOX1)” value is recorded as “marked increase in expression”.
